Data taken from US20240317741A1, “NAPHTHYRIDINE DERIVATIVE AS ATR INHIBITOR AND METHOD FOR PREPARING SAME” (WIGEN BIOMEDICINE TECHNOLOGY (SHANGHAI) CO., LTD., priority 2021, published 2024).
pIC50: −log10 of the molar value.

Key:
MIA PaCa-2 cells [1] = assay: In-vitro anti-proliferative activity against MIA PaCa-2 cells; assay type: cell-based; conditions: Homo sapiens, 72 h after dosing, intracellular ATP content
Method: (§1) MIA PaCa-2 cells were seeded on a 384-well plate at 3000 cells/well. After overnight adherence culture, DMSO or the compounds serially diluted 1:5 from 5 μM were added. […] The inhibition percentage of viable cells by the compounds was calculated by comparing with the DMSO group, and the IC50 value was calculated.

[2] = Liver microsomal stability (human); assay type: in vitro ADME; conditions: human liver microsomes, 1 μM compound, NADPH regeneration system, 37° C.; read-out: T1/2 (min) Human
Method: (§2) After 1 μM compound was incubated with 500 µg/mL of human or mouse liver microsomes and a NADPH regeneration system at 37° C. for different times, respectively, LC-MS-MS was used to analyze the remaining amount of the compound and calculate T1/2.

[3] = Liver microsomal stability (mouse); assay type: in vitro ADME; conditions: mouse liver microsomes, 1 μM compound, NADPH regeneration system, 37° C.; read-out: T1/2 (min) Mouse
Method: as §2

[4] = In vivo pharmacokinetic experiment in mice; set-up: species or system CD-1 female mice; conditions: female, CD-1, mouse, plasma; for Cmax: read-out: Cmax; for Tmax: read-out: Tmax; for Vd: read-out: Vdss
Method: CD-1 female mice aged 7 to 10 weeks were intravenously administered and orally administered at a dose of 2 mg/kg and 10 mg/kg, respectively. The mice were fasted for at least 12 h before the administration and given food 4 h after the administration, and they were given ad libitum access to water during the experiment.
On the day of the experiment, animals in the intravenous group were administered the corresponding compound by single injection via the tail vein at an administration volume of 10 mL/kg, and animals in the oral group were administered the corresponding compound by single intragastric injection at an administration volume of 10 mL/kg. The animals were weighed before administration, and the administration volume was calculated according to the body weight. The sample collection time was 0.083 h, 0.167 h, 0.5 h, 1 h, 2 h, 4 h, 8 h and 24 h. About 200 μL of whole blood was collected through the orbital venous plexus at each time point and used to prepare plasma for concentration determination by high performance liquid chromatography-tandem mass spectrometry (LC-MS/MS). The plasma concentrations were processed using a non-compartmental model of Winnolin pharmacokinetic software, and the pharmacokinetic parameters were calculated using a linear-log trapezoidal method.

MIA PaCa-2 cells [5] = assay: In-vitro anti-proliferative activity in combination with gemcitabine against MIA PaCa-2 cells; assay type: cell-based; conditions: in combination with 20 nM gemcitabine, 72 h after dosing
Method: as §1, with “cells/well, and 20 nM gemcitabine was added.” for “cells/well.”, “100 nM” for “5 μM”

[6] = tested on: Human colon cancer LOVO cells; assay: In vivo efficacy in LoVo model; set-up: species or system nude mouse; conditions: LoVo model in nude mice, 20 mpk BID PO, days 1-3, 8-10, 15-17 and day 21
Method: After being subcultured, the cells were collected when they reached the desired amount. 1×10^7 LOVO cells were injected into the left dorsal side of each nude mouse, and the animals were randomly grouped for administration after tumors grew to 100-200 mm^3. The groups were as follows: a solvent control group of 8 mice and a compound group of 8 mice. The compounds were administered orally 3 days a week and interrupted for 4 days, for 21 consecutive days. The vehicle was a 0.5% MC suspension containing 1% tween-80. On Tuesday and Thursday each week, tumor volumes and body weight of the mice were measured, and the nude mice were sacrificed on day 21 after the administration. […] The toxicity of the compounds was evaluated according to the body weight of the mice.

[7] = tested on: Human colon cancer HT29 cells; assay: In vivo efficacy in HT-29 model, alone and with gemcitabine; set-up: species or system nude mouse; conditions: HT-29 model in nude mice, day 21
Method: After being subcultured, the cells were collected when they reached the desired amount. 1×10^7 HT29 cells were injected into the left dorsal side of each nude mouse, and the animals were randomly grouped for administration after tumors grew to 100-200 mm^3. The groups were as follows: a solvent control group of 6 mice, a single drug group of 15 mg/kg gemcitabine (GMC), and a combination group of 15 mg/kg gemcitabine and a compound. Gemcitabine was administered intraperitoneally with PBS as a vehicle once a week. The compounds were administered 3 days a week and interrupted for 4 days (3 on/4 off), for 21 consecutive days, and the vehicle was a 0.5% MC suspension containing 1% tween-80. On Tuesday and Thursday each week, tumor volumes and body weight of the mice were measured, and the nude mice were sacrificed on day 21 after the administration. […] The toxicity of the compounds was evaluated according to the body weight of the mice.

[8] = compound 20 mpk BID PO 3 on/4 off + GMC 15 mpk QW IP
[9] = single agent, 20 mpk BID PO, 3on/4off

## COC1CCC(C#N)(c2cc(N3CCOC[C@H]3C)nc3c(-c4ccn[nH]4)nccc23)CC1 (stereo partly drawn) [Compound 53, (R)-4-methoxy-1-(2-(3-methylmorpholine)-8-(1H-pyrazol-5-yl)-1,7-naphthyridin-4-yl)cyclohexane-1-carbonitrile]
MIA PaCa-2 cells [1]
  pIC50: > 6.00
[2]
  half-life at 1 μM: 24.8 min
[3]
  half-life at 1 μM: 7.78 min
[4]; Oral administration (10 mg/kg)
  AUC(0-t): 669 ng·h/mL
  bioavailability: 30.2%
  half-life: 87 min
  Cmax: 299 ng/mL
  Tmax: 30 min
[4]; iv, Injection (2 mg/kg)
  AUC(0-t): 444 ng·h/mL
  clearance: 75.1 mL/min/kg
  half-life: 16.2 min
  Vd: 1.61 L/kg

## C[C@@H]1COCCN1c1cc(C2(C#N)CCN(C)CC2)c2ccnc(-c3ccn[nH]3)c2n1 [Compound 43]
MIA PaCa-2 cells [1]
  pIC50: > 6.00
MIA PaCa-2 cells [5]
  pIC50: 8.91
[2]
  half-life at 1 μM: 9.44 min
[3]
  half-life at 1 μM: 18.9 min
[4]; Oral administration (10 mg/kg)
  AUC(0-t): 439 ng·h/mL
  bioavailability: 35.5%
  half-life: 47.4 min
  Cmax: 616 ng/mL
  Tmax: 15 min
[4]; iv, Injection (2 mg/kg)
  AUC(0-t): 247 ng·h/mL
  clearance: 135 mL/min/kg
  half-life: 13.2 min
  Vd: 1.79 L/kg
[6]
  TGI(%): 75.3%
[7]; [8]
  TGI(%): 84.4%
[7]; [9]
  TGI(%): 51.2%

## C[C@@H]1COCCN1c1cc(C2(C#N)CCCC2)c2ccnc(-c3ccn[nH]3)c2n1 [Compound 27]
MIA PaCa-2 cells [1]
  pIC50: 5.30 to 6.00
MIA PaCa-2 cells [5]
  pIC50: 8.83
[2]
  half-life at 1 μM: 27.2 min
[3]
  half-life at 1 μM: 9.14 min
[6]
  TGI(%): 62.7%

## C[C@@H]1COCCN1c1cc(C2(C#N)CCC(N(C)C)CC2)c2ccnc(-c3ccn[nH]3)c2n1 (stereo partly drawn) [Compound 34, (R)-4-(dimethylamino)-1-(2-(3-methylmorpholine)-8-(1H-pyrazol-5-yl)-1,7-naphthyridin-4-yl)cyclohexane-1-carbonitrile]
MIA PaCa-2 cells [1]
  pIC50: > 6.00
MIA PaCa-2 cells [5]
  pIC50: 9.20
[2]
  half-life at 1 μM: 61.4 min
[3]
  half-life at 1 μM: 52.4 min
[6]
  TGI(%): 81.4%
[7]; [8]
  TGI(%): 78.1%
[7]; [9]
  TGI(%): 58.3%

## C[C@@H]1COCCN1c1cc(C2(C#N)CCN(C3CCCC3)CC2)c2ccnc(-c3ccn[nH]3)c2n1 [Compound 69]
MIA PaCa-2 cells [1]
  pIC50: > 6.00
[2]
  half-life at 1 μM: 5.9 min
[3]
  half-life at 1 μM: 7.52 min

## C[C@@H]1COCCN1c1cc(C2(C#N)CCC(N3CCCC3)CC2)c2ccnc(-c3ccn[nH]3)c2n1 (some centres unmarked) [Compound 35]
MIA PaCa-2 cells [1]
  pIC50: > 6.00
MIA PaCa-2 cells [5]
  pIC50: 9.18

## CCN(CC)C1CCC(C#N)(c2cc(N3CCOC[C@H]3C)nc3c(-c4ccn[nH]4)nccc23)CC1 (some centres unmarked) [Compound 62]
MIA PaCa-2 cells [1]
  pIC50: > 6.00

## C[C@@H]1COCCN1c1cc(C2(C#N)CCSCC2)c2ccnc(-c3ccn[nH]3)c2n1 [Compound 30]
MIA PaCa-2 cells [1]
  pIC50: 5.30 to 6.00

## COCCC(C#N)c1cc(N2CCOC[C@H]2C)nc2c(-c3ccn[nH]3)nccc12 (some centres unmarked) [Compound 10]
MIA PaCa-2 cells [1]
  pIC50: 5.30 to 6.00

## C[C@@H]1COCCN1c1cc(C2(C#N)CCNCC2)c2ccnc(-c3ccn[nH]3)c2n1 [Compound 37, (R)-4-(2-(3-methylmorpholino)-8-(1H-pyrazol-5-yl)-1,7-naphthyridin-4-yl)piperidine-4-carbonitrile]
MIA PaCa-2 cells [1]
  pIC50: 5.30 to 6.00

## C[C@@H]1COCCN1c1cc(C2(C#N)CCC(OC3CCCC3)CC2)c2ccnc(-c3ccn[nH]3)c2n1 (some centres unmarked) [Compound 59]
MIA PaCa-2 cells [1]
  pIC50: > 6.00

## C[C@@H]1COCCN1c1cc(C2(C#N)CCN(CC3CCOC3)CC2)c2ccnc(-c3ccn[nH]3)c2n1 (some centres unmarked) [Compound 84]
MIA PaCa-2 cells [1]
  pIC50: > 6.00

## C[C@@H]1COCCN1c1cc(C2(C#N)CCN(CC(F)F)CC2)c2ccnc(-c3ccn[nH]3)c2n1 [Compound 42]
MIA PaCa-2 cells [1]
  pIC50: > 6.00

## CSCCC(C#N)c1cc(N2CCOC[C@H]2C)nc2c(-c3ccn[nH]3)nccc12 (some centres unmarked) [Compound 13]
MIA PaCa-2 cells [1]
  pIC50: 5.30 to 6.00

## C[C@@H]1COCCN1c1cc(C2(C#N)CC2)c2ccnc(-c3ccn[nH]3)c2n1 [Compound 28]
MIA PaCa-2 cells [1]
  pIC50: < 5.30

## C[C@@H]1COCCN1c1cc(C(C#N)CC[S+](C)[O-])c2ccnc(-c3ccn[nH]3)c2n1 (some centres unmarked) [Compound 14]
MIA PaCa-2 cells [1]
  pIC50: < 5.30

## C[C@@H]1COCCN1c1cc(C2(C#N)CCC(OC3CC3)CC2)c2ccnc(-c3ccn[nH]3)c2n1 (some centres unmarked) [Compound 57]
MIA PaCa-2 cells [1]
  pIC50: > 6.00

## C=CC(C#N)c1cc(N2CCOC[C@H]2C)nc2c(-c3ccn[nH]3)nccc12 (some centres unmarked) [Compound 7]
MIA PaCa-2 cells [1]
  pIC50: < 5.30

## C[C@@H]1COCCN1c1cc(C(C#N)C2CCOCC2)c2ccnc(-c3ccn[nH]3)c2n1 (some centres unmarked) [Compound 22]
MIA PaCa-2 cells [1]
  pIC50: 5.30 to 6.00

## C[C@@H]1COCCN1c1cc(C2(C#N)CCC3(CC2)COC3)c2ccnc(-c3ccn[nH]3)c2n1 [Compound 51]
MIA PaCa-2 cells [1]
  pIC50: > 6.00

## C[C@@H]1COCCN1c1cc(C(C#N)CC(N)=O)c2ccnc(-c3ccn[nH]3)c2n1 (some centres unmarked) [Compound 11]
MIA PaCa-2 cells [1]
  pIC50: 5.30 to 6.00

## C[C@@H]1COCCN1c1cc(C2(C#N)CCN(C3CCC3)CC2)c2ccnc(-c3ccn[nH]3)c2n1 [Compound 68]
MIA PaCa-2 cells [1]
  pIC50: > 6.00

## CC(C)N1CCC(C#N)(c2cc(N3CCOC[C@H]3C)nc3c(-c4ccn[nH]4)nccc23)CC1 [Compound 67]
MIA PaCa-2 cells [1]
  pIC50: > 6.00

## C[C@@H]1COCCN1c1cc(C2(C#N)CCN(C3CCN(C)C3)CC2)c2ccnc(-c3ccn[nH]3)c2n1 (some centres unmarked) [Compound 74]
MIA PaCa-2 cells [1]
  pIC50: > 6.00

## CNC1CCC(C#N)(c2cc(N3CCOC[C@H]3C)nc3c(-c4ccn[nH]4)nccc23)CC1 (some centres unmarked) [Compound 61]
MIA PaCa-2 cells [1]
  pIC50: > 6.00

## Nc1ccn([C@@H]2O[C@H](CO)[C@@H](O)C2(F)F)c(=O)n1 [GMC, gemcitabine, reference compound]
[7]; GMC alone 15 mpk QW IP, once a week
  TGI(%): 50.7%

## C[C@@H]1COCCN1c1cc(C2(C#N)CCC(N)CC2)c2ccnc(-c3ccn[nH]3)c2n1 (some centres unmarked) [Compound 60]
MIA PaCa-2 cells [1]
  pIC50: > 6.00

## C[C@@H]1COCCN1c1cc(C(C#N)CCN2CCN(C)CC2)c2ccnc(-c3ccn[nH]3)c2n1 (some centres unmarked) [Compound 19]
MIA PaCa-2 cells [1]
  pIC50: 5.30 to 6.00

## C[C@@H]1COCCN1c1cc(C2(C#N)CCN(c3cccc(F)c3)CC2)c2ccnc(-c3ccn[nH]3)c2n1 [Compound 48]
MIA PaCa-2 cells [1]
  pIC50: > 6.00

## CC(C)OC1CCC(C#N)(c2cc(N3CCOC[C@H]3C)nc3c(-c4ccn[nH]4)nccc23)CC1 (some centres unmarked) [Compound 55]
MIA PaCa-2 cells [1]
  pIC50: > 6.00

## C[C@@H]1COCCN1c1cc(C(C#N)CCO)c2ccnc(-c3ccn[nH]3)c2n1 (some centres unmarked) [Compound 9]
MIA PaCa-2 cells [1]
  pIC50: 5.30 to 6.00

## C[C@@H]1COCCN1c1cc(C2(C#N)CCN(CC(F)(F)F)CC2)c2ccnc(-c3ccn[nH]3)c2n1 [Compound 41, (R)-4-(2-(3-methylmorpholino)-8-(1H-pyrazol-5-yl)-1,7-naphthyridin-4-yl)-1-(2,2,2-trifluoroethyl)piperidine-4-carbonitrile]
MIA PaCa-2 cells [1]
  pIC50: > 6.00

## C[C@@H]1COCCN1c1cc(C2(C#N)CCN(C3CCOC3)CC2)c2ccnc(-c3ccn[nH]3)c2n1 (some centres unmarked) [Compound 73]
MIA PaCa-2 cells [1]
  pIC50: > 6.00

## C[C@@H]1COCCN1c1cc(C(C#N)CCN)c2ccnc(-c3ccn[nH]3)c2n1 (some centres unmarked) [Compound 16]
MIA PaCa-2 cells [1]
  pIC50: 5.30 to 6.00

## C[C@@H]1COCCN1c1cc(C(C#N)C2CCN(C)CC2)c2ccnc(-c3ccn[nH]3)c2n1 (some centres unmarked) [Compound 24]
MIA PaCa-2 cells [1]
  pIC50: 5.30 to 6.00
